Assay results reported in patent US7396857B2, “Therapeutic combinations for the treatment or prevention of depression” (Wyeth, priority 2005, dated 2008).

Columns and labels:
Male Swiss Webster mice [1] = experiment: Tail suspension test; assay type: in vivo
Description: Compound 1, (7-(2,6-dichlorophenyl)-5-fluoro-2,3-dihydrobenzofuran-2-yl)methanamine, was used to exemplify the effectiveness of compounds of the present invention in the tail suspension test. While not a direct model of depression, the tail suspension test is an assay that can evaluate antidepressant-like effects of drugs. Clinically effective drugs such as Prozac (fluoxetine) are effective in this assay. Specifically, they decrease the amount of time the mice spend immobile after being hung upside down by their tails during the test. It is impossible to determine if a mouse is indeed depressed. However, the fact that clinically effective antidepressants reduce immobility lends predictive validity to the model.
Male Swiss Webster mice (Charles River) weighing 20-35 g were used throughout this study. They were housed in groups of five per cage in an AALAC-accredited facility that was maintained on a 12-h light dark cycle (lights on at 0600 h) and had free access to food and water. Experimental groups consisted of 12 mice, randomly assigned to treatment groups. All experiments were performed between 9:00 AM and noon in accordance to the Guide for the Care and Use of Laboratory Animals as adopted and promulgated by the National Institutes of Health (Pub. 85-23, 1985).
Solutions of Compound 1 and paroxetine were freshly prepared. Compound 1 was dissolved in saline and paroxetine was dissolved in distilled water. All drugs were injected i.p. at a volume of 10 ml/kg body weight. Combination treatments were cotreated, 30 minutes prior to the test.
The procedure followed in this study was a variant of the one originally described by Steru et al. (1985). […] The time spent immobile during a 6-minute test session was automatically recorded. […] Data collected were expressed as a mean of immobility time and statistical analysis was performed using a one-way ANOVA with least significant difference (LSD) post-hoc test.

Male Swiss Webster mice [2] = settings: general statement on clinically effective drugs; cited from earlier work

## NCC1Cc2cc(F)cc(-c3c(Cl)cccc3Cl)c2O1 (stereo not shown) [Compound 1, (7-(2,6-dichlorophenyl)-5-fluoro-2,3-dihydrobenzofuran-2-yl)methanamine]
Male Swiss Webster mice [1]; Compound 1 0.1 mg/kg i.p. alone, 30 minutes prior to test, 6-minute session
  produced antidepressant-like effects alone: Neither

## CNCCC(Oc1ccc(C(F)(F)F)cc1)c1ccccc1 (stereo not shown) [Prozac, N-methyl-3-(p-trifluoromethylphenoxy)-3-phenylpropylamine]
Male Swiss Webster mice [2]
  effectiveness in the tail suspension assay (decrease of time spent immobile): effective

## Fc1ccc([C@@H]2CCNC[C@H]2COc2ccc3c(c2)OCO3)cc1 [paroxetine, trans-(−)-3-[(1,3-benzodioxol-5-yloxy)methyl]-4-(4-fluo-rophenyl)piperidine]
Male Swiss Webster mice [1]; paroxetine 10 mg/kg i.p. dosed alone
  decrease in immobility time: 5%
Male Swiss Webster mice [1]; paroxetine 30 mg/kg i.p. dosed alone
  decrease in immobility time: 4%
